Reference: ChEMBL document CHEMBL5390254, “Discovery and Optimization of Novel hDHODH Inhibitors for the Treatment of Inflammatory Bowel Disease” (J Med Chem, 2023)
Activity calls are given as the source filed them. The rule behind the calls is not given here.

Experiments:
[1] = Metabolic stability in human liver microsomes assessed as half life at 3 uM incubated upto 90 mins in presence of NADPH by LC-MS/MS analysis; assay type: ADME, Microsome
[2] = Metabolic stability in rat liver microsomes assessed as half life at 3 uM incubated upto 90 mins in presence of NADPH by LC-MS/MS analysis; assay type: ADME, Microsome
[3] = Metabolic stability in mouse liver microsomes assessed as half life at 3 uM incubated upto 90 mins in presence of NADPH by LC-MS/MS analysis; assay type: ADME, Microsome
[4] = Metabolic stability in human liver microsomes assessed as intrinsic clearance at 3 uM incubated upto 90 mins in presence of NADPH by LC-MS/MS analysis; assay type: ADME, Microsome; settings: read-out: CLH
[5] = 1-octanol/water partition coefficient, logP of the compound at 2 mg by UPLC analysis; assay type: physicochemical
[6] = Acute toxicity in BALB/c mouse assessed as changes in RBC level in blood at 600 mg/kg,po and measured after 14 days by hematology test; assay type: organism-based, Erythrocyte; settings: in vivo, 336 h, time 14 day
[7] = Acute toxicity in BALB/c mouse assessed as changes in lymph level in blood at 600 mg/kg,po and measured after 14 days by hematology test; assay type: organism-based; settings: in vivo, 336 h, time 14 day
[8] = Acute toxicity in BALB/c mouse assessed as changes in CK level in serum at 600 mg/kg,po and measured after 14 days by Biochemistry analysis; assay type: organism-based; settings: in vivo, 336 h, time 14 day
[9] = Acute toxicity in BALB/c mouse assessed as changes in ALP level in serum at 600 mg/kg,po and measured after 14 days by Biochemistry analysis; assay type: organism-based; settings: in vivo, 336 h, time 14 day
[10] = Acute toxicity in BALB/c mouse assessed as changes in AST level in serum at 600 mg/kg,po and measured after 14 days by Biochemistry analysis; assay type: organism-based; settings: in vivo, 336 h, time 14 day
[11] = Acute toxicity in BALB/c mouse assessed as changes in ALB level in serum at 600 mg/kg,po and measured after 14 days by Biochemistry analysis; assay type: organism-based; settings: in vivo, 336 h, time 14 day
[12] = Acute toxicity in BALB/c mouse assessed as changes in ALT level in serum at 600 mg/kg,po and measured after 14 days by Biochemistry analysis; assay type: organism-based; settings: in vivo, 336 h, time 14 day
[13] = Acute toxicity in BALB/c mouse assessed as changes in urea level in serum at 600 mg/kg,po and measured after 14 days by Biochemistry analysis; assay type: organism-based; settings: in vivo, 336 h, time 14 day
[14] = Acute toxicity in BALB/c mouse assessed as tissue damage in heart at 600 mg/kg,po and measured after 14 days by hematoxylin and eosin staining based microscopy; assay type: organism-based; settings: in vivo, 336 h, time 14 day
[15] = Acute toxicity in BALB/c mouse assessed as tissue damage in liver at 600 mg/kg,po and measured after 14 days by hematoxylin and eosin staining based microscopy; assay type: organism-based; settings: in vivo, 336 h, time 14 day
[16] = Acute toxicity in BALB/c mouse assessed as tissue damage in spleen at 600 mg/kg,po and measured after 14 days by hematoxylin and eosin staining based microscopy; assay type: organism-based; settings: in vivo, 336 h, time 14 day
Mus musculus [17] = test: Anti-inflammatory activity against DSS-induced acute ulcerative colitis in C57BL/6 mouse model assessed as decrease in colon tissue damage score at 40 mg/kg, po QD for 6 days relative to DSS group; assay type: functional; design: scale not given: the % may be the effect or the level left; settings: time 6 day
Mus musculus [18] = test: Anti-inflammatory activity against DSS-induced acute ulcerative colitis in C57BL/6 mouse model assessed as decrease in IL-6 mRNA expression level in colon at 40 mg/kg, po QD for 6 days by RT-PCR analysis; assay type: functional, organism-based; settings: time 6.0 day
Mus musculus [19] = test: Anti-inflammatory activity against DSS-induced acute ulcerative colitis in C57BL/6 mouse model assessed as decrease in IL-1beta production in colon at 40 mg/kg, po QD for 6 days by ELISA; assay type: functional; design: scale not given: the % may be the effect or the level left; settings: time 6 day
[20] = Drug distribution in colon of DSS-induced acute ulcerative colitis in C57BL/6 mouse model at 40 mg/kg,po and measured after 0.5 hrs by LC-MS/MS analysis; assay type: ADME, organism-based; settings: in vivo
[21] = Drug distribution in colon of DSS-induced acute ulcerative colitis in C57BL/6 mouse model at 40 mg/kg,po and measured after 2 hrs by LC-MS/MS analysis; assay type: ADME, organism-based; settings: in vivo
[22] = AUCt in Sprague-Dawley rat at 5 mg/kg, iv and measured upto 48 hrs by LC-MS/MS analysis; assay type: ADME, organism-based; design: dose 5 mg/kg, time < 48 hrs, route iv; settings: in vivo
[23] = Clearance in Sprague-Dawley rat at 5 mg/kg, iv and measured upto 48 hrs by LC-MS/MS analysis; assay type: ADME, organism-based; settings: in vivo
[24] = AUCt in Sprague-Dawley rat at 15 mg/kg, po and measured upto 48 hrs by LC-MS/MS analysis; assay type: ADME, organism-based; design: dose 15 mg/kg, time < 48 hrs, route po; settings: in vivo
[25] = Half life in Sprague-Dawley rat at 15 mg/kg, po and measured upto 48 hrs by LC-MS/MS analysis; assay type: ADME, organism-based; settings: in vivo
[26] = Cmax in Sprague-Dawley rat at 15 mg/kg, po and measured upto 48 hrs by LC-MS/MS analysis; assay type: ADME, organism-based; design: dose 15 mg/kg, time < 48 hrs, route po; settings: in vivo
Mus musculus [27] = test: Anti-inflammatory activity against DSS-induced acute ulcerative colitis in C57BL/6 mouse model assessed as decrease in body weight loss at 20 mg/kg, po QD for 6 days (Rvb= -13.4%); assay type: functional; design: scale not given: the % may be the effect or the level left; settings: time 6 day
Mus musculus [28] = test: Anti-inflammatory activity against DSS-induced acute ulcerative colitis in C57BL/6 mouse model assessed as decrease in body weight loss at 40 mg/kg, po QD for 6 days (Rvb= -13.4%); assay type: functional; design: scale not given: the % may be the effect or the level left; settings: time 6 day
Mus musculus [29] = test: Anti-inflammatory activity against DSS-induced acute ulcerative colitis in C57BL/6 mouse model assessed as decrease in body weight loss at 80 mg/kg, po QD for 6 days (Rvb= -13.4%); assay type: functional; design: scale not given: the % may be the effect or the level left; settings: time 6 day
Mus musculus [30] = test: Anti-inflammatory activity against DSS-induced acute ulcerative colitis in C57BL/6 mouse model assessed as decrease in DAI score at 20 to 80 mg/kg, po QD for 6 days; assay type: functional, organism-based; settings: dose 20-80 mg/kg, time 6.0 day
Mus musculus [31] = test: Anti-inflammatory activity against DSS-induced acute ulcerative colitis in C57BL/6 mouse model assessed as increase in colon length at 80 mg/kg, po QD for 6 days (Rvb= 5.3cm); assay type: functional; settings: time 6 day
Mus musculus [32] = test: Anti-inflammatory activity against DSS-induced acute ulcerative colitis in C57BL/6 mouse model assessed as recovery in colon damage at 20 to 80 mg/kg, po QD for 6 days by H and E staining based microscopy; assay type: functional, organism-based; settings: dose 20-80 mg/kg, time 6.0 day
Mus musculus [33] = test: Anti-inflammatory activity against DSS-induced acute ulcerative colitis in C57BL/6 mouse model assessed as decrease in IL-17 mRNA expression level in colon at 20 to 80 mg/kg, po QD for 6 days by RT-qPCR analysis; assay type: functional, organism-based; settings: dose 20-80 mg/kg, time 6.0 day
Mus musculus [34] = test: Anti-inflammatory activity against DSS-induced acute ulcerative colitis in C57BL/6 mouse model assessed as decrease in IL-1beta mRNA expression level in colon at 20 to 80 mg/kg, po QD for 6 days by RT-qPCR analysis; assay type: functional, organism-based; settings: dose 20-80 mg/kg, time 6.0 day
Mus musculus [35] = test: Anti-inflammatory activity against DSS-induced acute ulcerative colitis in C57BL/6 mouse model assessed as decrease in IL-6 protein level in colon at 20 to 80 mg/kg, po QD for 6 days by ELISA; assay type: functional, organism-based; settings: dose 20-80 mg/kg, time 6.0 day
Mus musculus [36] = test: Anti-inflammatory activity against DSS-induced acute ulcerative colitis in C57BL/6 mouse model assessed as decrease in IL-17 protein level in colon at 20 to 80 mg/kg, po QD for 6 days by ELISA; assay type: functional, organism-based; settings: dose 20-80 mg/kg, time 6.0 day

## Nc1nc(-c2cn(Cc3c(F)cccc3Cl)c3ncccc23)ncc1C1CC1
[1]
  half-life at 3 µM: 18.9 min
[2]
  half-life at 3 µM: 7.8 min
[3]
  half-life at 3 µM: 9.4 min
[4]
  CLint scaled at 3 µM: 91.8 mL/min/kg
[5]
  logP: 5.3
[6]
  Activity: Non-Toxic
[7]
  Activity: Non-Toxic
[8]
  Activity: Non-Toxic
[9]
  Activity: Non-Toxic
[10]
  Activity: Non-Toxic
[11]
  Activity: Non-Toxic
[12]
  Activity: Non-Toxic
[13]
  Activity: Non-Toxic
[14]
  Activity: Non-Toxic
[15]
  Activity: Non-Toxic
[16]
  Activity: Non-Toxic
Mus musculus [17]
  Activity: 54.55%
Mus musculus [18]
  Activity: Active
Mus musculus [19]
  Activity: 84.32%
[20]
  Drug uptake: Active
[21]
  Drug uptake: Active
[22]
  AUC(0-t) at 48 h: 17900 ng·h/mL
[23]
  clearance: 5 mL/min/kg
[24]
  AUC(0-t) at 48 h: 11600 ng·h/mL
[25]
  half-life: 96 min
[26]
  Cmax: 2680 ng/mL
Mus musculus [27]
  Activity: -5.1%
Mus musculus [28]
  Activity: -4.2%
Mus musculus [29]
  Activity: 1.4%
Mus musculus [30]
  Activity: Dose-Dependent Effect
Mus musculus [31]
  Activity: 7.5 cm
Mus musculus [32]
  Activity: Dose-Dependent Effect
Mus musculus [33]
  Activity: Dose-Dependent Effect
Mus musculus [34]
  Activity: Dose-Dependent Effect
Mus musculus [35]
  Activity: Dose-Dependent Effect
Mus musculus [36]
  Activity: Dose-Dependent Effect
